Where “and” joins values, the source holds several entries; their conditions need not be identical. Equal values may be shown once. Read-outs that look alike come from different tables or passages of the source. Some results are limits rather than exact numbers.

For one experiment, the target named is BsAcuC (Bacillus subtilis, UniProt P39067). The format is biochemical. The conditions noted are these: substrate with BsAcuC.
The test system of another experiment is KpHdaH H144A. The experiment is classed as biochemical, Klebsiella pneumoniae.
In a further experiment the test system is D20-37KpHdaH. The format is biochemical, Klebsiella pneumoniae. The following applies: substrate with D20-37KpHdaH (L1-loop deletion).
The target of experiment [1] is T1, BsAcuC (2c) (Bacillus subtilis, UniProt P39067).
T1 construct: made in house; host or cells: E. coli BL21 (DE3)
T1 sequence (P39067 1-387): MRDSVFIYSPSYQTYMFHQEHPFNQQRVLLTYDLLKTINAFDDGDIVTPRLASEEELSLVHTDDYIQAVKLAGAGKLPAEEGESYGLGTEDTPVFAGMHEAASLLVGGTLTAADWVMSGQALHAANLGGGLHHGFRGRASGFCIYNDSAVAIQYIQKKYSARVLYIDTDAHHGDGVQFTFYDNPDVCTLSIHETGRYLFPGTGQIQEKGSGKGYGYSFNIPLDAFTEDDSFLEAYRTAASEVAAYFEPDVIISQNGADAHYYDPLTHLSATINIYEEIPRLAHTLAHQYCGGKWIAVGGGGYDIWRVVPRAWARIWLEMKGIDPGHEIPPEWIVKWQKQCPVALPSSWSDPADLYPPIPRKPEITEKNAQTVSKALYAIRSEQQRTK
In words: Dose-response inhibition assay. The format is biochemical. The conditions noted are these: 40 µM LGKac; for IC50: 200 nM enzyme, 30 min, 37 °C. An excerpt:
Data was transformed to relative enzyme activity (%) compared to control wells without inhibitor, and fitted to sigmoidal functions with variable slope (Eqs. 3, 4 parameters, h: Hill slope) to afford IC50 values. Assuming fast-on/fast-off competitive inhibition, the Cheng–Prusoff equation (Eq. 4) was employed to transform IC50 data into inhibitory constants (Ki), with KM values as determined previously.3 Res.activity=Res.activitybottom+Res.activitytop−Res.activitybottom/1+10^(logIC50−logI)h 4 Ki=IC50/1+[S]/KM

Experiment [2] concerns the target T2, KpHdaH (1b) (Klebsiella pneumoniae, UniProt A0A377Z5F6). In words: biochemical. The following applies: for IC50: 15 nM enzyme, 60 min, 37 °C.
A further experiment addresses LcApaH (3) (Legionella cherrii, UniProt A0A0W0SGS1). In words: biochemical. The following applies: for IC50: 0.5 nM enzyme, 30 min, 37 °C.
The next experiment concerns the target LpApaH (3) (Legionella pneumophila, UniProt A0A2S6EWV0). Nature of the experiment: biochemical.
For experiment [3], the target named is T3, RwDmhA (1b) (Rhizorhabdus wittichii, UniProt A0A067XIQ6). Nature of the experiment: biochemical. The conditions noted are these: for IC50: 30 nM enzyme, 60 min, 37 °C.
For the next experiment, the target named is (UniProt A0A2N0XRJ0). In words: biochemical. Also noted: species or system Vibrio sp. The following applies: for IC50: 60 µM QPKKac, 1.5 nM enzyme, 60 min, 37 °C.
Experiment [4] has as its target T1, BsAcuC (2c). Nature of the experiment: Inhibitor screening assay (10 µM or 1 µM). The experiment is classed as biochemical. The conditions noted are these: pre-screening at 10 µM or 1 µM inhibitor. An excerpt: Data was transformed to relative enzyme activity (%) compared to control wells without inhibitors.
Experiment [5] concerns the target T2, KpHdaH (1b). In words: biochemical. The following applies: for remaining activity at 1 µM: inhibitor 1 µM; for remaining activity at 10 µM: inhibitor 10 µM.
Experiment [6] addresses T3, RwDmhA (1b). In words: biochemical. The conditions noted are these: for remaining activity at 1 µM: inhibitor 1 µM.
The subject of another experiment is VcHdaH (5b). The following applies: VcHdaH (5b)+TSA control; for RFU: 20 nM enzyme, 37 °C, single replicates; for RFU, mean: mean of n = 3.
For the next experiment, the system named is HsHDAC11 (5f). The conditions noted are these: cited from earlier work.
A further experiment concerns the target PsApaH (4) (Pseudomonas sp. M30-35, UniProt A0A1Y0KY79). In words: biochemical.
The mark [7] stands for this setting: decadic log of IC50, read-out: Log[IC50(M)] (converted).
The mark [8] stands for this setting: Log[IC50(M)], decadic log of IC50, 60 µM QPKKac.

For the compound `CC(=O)NCCCC[C@H](NC(=O)OC(C)(C)C)C(=O)Nc1ccc2c(C)cc(=O)oc2c1` [Boc-Lys(Ac)-AMC], the AMC fluorescence on BsAcuC stood at 768 a.u; in the experiment with KpHdaH H144A (substrate with KpHdaH H144A (first of two columns with this head)), 2059 a.u; in the experiment with KpHdaH H144A (substrate with KpHdaH H144A (second of two columns with this head)) it was 31 a.u; with D20-37KpHdaH, 1597 a.u.
The term IC50 denotes the concentration that inhibits the measured activity by half. The term Ki denotes a measure of affinity in units of concentration, obtained from inhibition or displacement. Broadly, the remaining activity is the signal under treatment as a percentage of the control signal. On to `CC(/C=C/C(=O)NO)=C\[C@@H](C)C(=O)c1ccc(N(C)C)cc1` [TSA, trichostatin A], for which the IC50 was 5.93e-07 M on BsAcuC (2c) [1] (read-out: IC50); 6.31e-07 M on BsAcuC (2c) [1] (setting [7]); no more than 1.07e-08 M against KpHdaH (1b) [2] (IC50, 60 µM QPKKac); no more than 1.07e-08 M against KpHdaH (1b) [2] (setting [8]); 1.04e-08 M on LcApaH (3) (IC50, 40 µM LGKac); 1.05e-08 M against LcApaH (3) (Log[IC50(M)], decadic log of IC50, 40 µM LGKac). The IC50 on LpApaH (3) (IC50) is 7.17e-09 M; against LpApaH (3) (Log[IC50(M)]), 7.94e-09 M; on RwDmhA (1b) [3] (IC50, 60 µM QPKKac), 8.65e-07 M; against RwDmhA (1b) [3] (setting [8]), 8.71e-07 M; on (UniProt A0A2N0XRJ0) (read-out: IC50) it was 2.54e-08 M; on (UniProt A0A2N0XRJ0) (setting [7]), 2.51e-08 M. Also, the IC50 at PsApaH (4) was no more than 18.1 nM. The Ki at BsAcuC (2c) [1] (calculated using the Cheng–Prusoff equation) is 400 nM; on KpHdaH (1b) [2] (Ki, calculated using the Cheng–Prusoff equation, 60 µM QPKKac), no more than 2.47 nM; at LcApaH (3) (Ki, calculated using the Cheng–Prusoff equation, 40 µM LGKac), 3.95 nM; at LpApaH (3) (Ki), 2.47 nM; on RwDmhA (1b) [3] it was 356 nM; at (UniProt A0A2N0XRJ0), 11.1 nM. Besides, the Ki on PsApaH (4) was no more than 7.56 nM. In addition, the “inhibition of BsAcuC (2c) in the initial screen, in words” value against BsAcuC (2c) [4] is on record as “only weakly inhibited”. Moreover, the remaining activity at 1 µM at KpHdaH (1b) [5] (individual replicates) turned out to be 2.1%; at KpHdaH (1b) [5] (mean), 2.15%; on RwDmhA (1b) [6] (individual replicates), 45.9%; at RwDmhA (1b) [6] (mean), 45.5%. Also, the remaining activity at 10 µM on KpHdaH (1b) [5] (individual replicates) is -0.2%; at KpHdaH (1b) [5] (mean) it was -0.2%; at RwDmhA (1b) [6] (inhibitor 10 µM, mean), 7.3%. The RFU in the experiment with VcHdaH (5b) (10 µM peptide 2 (S2), 45 min) was 14 RFU and 2 RFU and 59 RFU; in the experiment on VcHdaH (5b) (10 µM peptide 2a (S2a), 30 min), -513 RFU and -208 RFU and -504 RFU; with VcHdaH (5b) (20 µM Boc-Lys(Ac)-AMC, 30 min), 8 RFU and -7 RFU and -73 RFU. Besides, the “RFU, mean” value with VcHdaH (5b) (10 µM peptide 2 (S2)) is 25 RFU; in the experiment on VcHdaH (5b) (10 µM peptide 2a (S2a)), -408 RFU; with VcHdaH (5b) (20 µM Boc-Lys(Ac)-AMC), -24 RFU. Moreover, the “inhibition of HsHDAC11 (5f), in words” value with HsHDAC11 (5f) was “only weakly inhibited”.

The record behind these values is article PMC11532494 (Nature Communications, 2024).
